The results in this text go back to paper PMC8192900, “Label-free high-throughput screening assay for the identification of norepinephrine transporter (NET/SLC6A2) inhibitors” (Scientific Reports, 2021).

Experiment [1] has as its system JumpIn-NET cells. Nature of the experiment: Effect of NET inhibitor alone on normalized Cell Index during 1 h pretreatment (xCELLigence). The conditions noted are these: +dox JumpIn-NET cells; for Effect on nCI during pretreatment at highest tested concentration: 10 µM. It counts as cell-based, human.
In experiment [2] the test system is JumpIn-NET cells. Nature of the experiment: TRACT assay (xCELLigence impedance): substrate-induced cellular response, apparent substrate potency. The experiment is classed as cell-based, human. The conditions noted are these: for Decrease of apparent potency in dox-treated compared to vehicle-treated cells: +dox vs −dox JumpIn-NET cells; for EC50: Homo sapiens.
Where [3] appears, read: doxycycline-treated (+dox) JumpIn-NET cells, 1 h pretreatment with 1 µM nisoxetine, read-out: Apparent potency pEC50 ± SEM (converted).
[4] abbreviates: vehicle-treated (−dox) JumpIn-NET cells, no nisoxetine pretreatment, net AUC first 30 min, read-out: Apparent potency pEC50 ± SEM (converted).

Read-outs that look alike come from different tables or passages of the source.

For the molecule `CNCC[C@@H](Oc1ccccc1C)c1ccccc1.Cl` [Atomoxetine, atomoxetine hydrochloride], in the experiment on JumpIn-NET cells [1], the “Effect on nCI during pretreatment at highest tested concentration” value is “transient increase in nCI”.
Same read-out and setting: the result for `CC(NC(C)(C)C)C(=O)c1cccc(Cl)c1.Cl` (centres unmarked) [Bupropion, bupropion hydrochloride] reads “transient increase in nCI”.
Consider `Cl.NCCc1ccc(O)c(O)c1` [DA, dopamine hydrochloride], for which, in the experiment on JumpIn-NET cells [2], the “Decrease of apparent potency in dox-treated compared to vehicle-treated cells” value (“Decrease of apparent potency” below) was “twofold lower”. For the same molecule, the EC50 in the experiment on JumpIn-NET cells [2] (setting [3]) was 39800 nM; in the experiment on JumpIn-NET cells [2] (setting [4]), 7940 nM.
On to `CNC[C@H](O)c1ccc(O)c(O)c1.O=C(O)C(O)C(O)C(=O)O` [EP, (−)-epinephrine (+)-bitartrate salt], for which, in the experiment with JumpIn-NET cells [2] (1 µM substrate (EC20), +dox cells, no inhibitor), the “Basal response in vehicle-pretreated cells, higher than that of NE” value was “approximately 60%”. For the same molecule, the “Decrease of apparent potency” value with JumpIn-NET cells [2] is given as “decreased tenfold”. Further, the EC50 in the experiment with JumpIn-NET cells [2] (read-out: Apparent potency pEC50 ± SEM, doxycycline-treated (+dox) JumpIn-NET cells, 1 h pretreatment with 1 µM nisoxetine (converted)) was 501 nM; in the experiment on JumpIn-NET cells [2] (read-out: Apparent potency pEC50 ± SEM, doxycycline-treated (+dox) JumpIn-NET cells, no nisoxetine pretreatment (converted)), 3980 nM; with JumpIn-NET cells [2] (read-out: Apparent potency pEC50 ± SEM, vehicle-treated (−dox) JumpIn-NET cells, no nisoxetine pretreatment (converted), net AUC first 30 min), 398 nM.
Take `NC[C@H](O)c1ccc(O)c(O)c1.O.O=C(O)C(O)C(O)C(=O)O` [NE, L-(−)-norepinephrine (+)-bitartrate salt monohydrate]: the “Decrease of apparent potency” value in the experiment on JumpIn-NET cells [2] came out at […]. For the same molecule, the EC50 with JumpIn-NET cells [2] (setting [3]) was […]; in the experiment with JumpIn-NET cells [2] (doxycycline-treated (+dox) JumpIn-NET cells, no nisoxetine pretreatment, read-out: Apparent potency pEC50 ± SEM (converted)), […]; in the experiment with JumpIn-NET cells [2] (vehicle-treated (−dox) JumpIn-NET cells, 1 h pretreatment with 1 µM nisoxetine, read-out: Apparent potency pEC50 ± SEM (converted)), […]; in the experiment with JumpIn-NET cells [2] (setting [4]), […].
Consider `CNCCC(Oc1ccccc1OC)c1ccccc1.Cl` (centres unmarked) [Nisoxetine, Nisoxetine hydrochloride], for which the “Effect on nCI during the 1 h pretreatment” value in the experiment on JumpIn-NET cells [1] (1 µM) was “did not affect the nCI”. The “Effect on nCI during pretreatment at highest tested concentration” value in the experiment with JumpIn-NET cells [1] is “transient increase in nCI”.
